Data taken from patent US12071414B2, “Apelin receptor agonists and methods of use thereof” (Sanford Burnham Prebys Medical Discovery Institute, priority 2015, dated 2024).

target: T1, human apelin receptor (APJ, AGTRL-one, APLNR) (Homo sapiens, UniProt P35414); assay: cell-based cAMP TR-FRET assay of apelin receptor activation; settings: CHO cells expressing human APJ, forskolin-stimulated cAMP, 0.5 h incubation, 50% of control (apelin-13, 1 nM) response; read-out: Potency Category (EC50)
T1 construct: host or cells: Chinese hamster ovary cells, stably integrated receptor
T1 sequence (P35414 1-380): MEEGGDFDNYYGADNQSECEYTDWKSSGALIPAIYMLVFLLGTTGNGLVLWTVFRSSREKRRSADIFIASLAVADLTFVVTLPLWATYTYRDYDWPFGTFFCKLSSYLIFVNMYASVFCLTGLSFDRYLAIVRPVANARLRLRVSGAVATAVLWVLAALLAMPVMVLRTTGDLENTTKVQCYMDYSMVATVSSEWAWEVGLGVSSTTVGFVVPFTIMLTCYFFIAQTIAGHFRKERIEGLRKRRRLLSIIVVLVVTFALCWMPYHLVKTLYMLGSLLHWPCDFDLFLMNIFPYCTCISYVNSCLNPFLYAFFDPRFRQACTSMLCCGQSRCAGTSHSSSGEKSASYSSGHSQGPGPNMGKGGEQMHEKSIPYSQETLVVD
Procedure: The assays disclosed herein were performed using cell lines from DiscoveX, Inc. Biological activity was determined to the cell—based assay. This assay detects activation of the receptor by reporting on intracellular cyclic adenosine monophosphate (cAMP) level. Chinese hamster ovary cells engineered to express the stably integrated human apelin receptor (APJ, AGTRL—one, APLNR), pleaded into the wells of the microtiter plate. Cells were stimulated with […] to increase intracellular cyclic AMP. Immediately following, compounds were added to the range of final concentrations 0.0-100 μM, in DMSO (not to exceed a final DMSO concentration greater than 1% ν/ν), and allowed to incubate with the cells for 0.5 h. At the end of the incubation, cells were lysed to stop APJ signaling and cAMP was quantified using a commercially available competitive immunoassay kit that applies homogenous time—resolved florescence energy transfer (TR—FRET). The assay is based on the competition between a europium (Eu) chelate—labeled cAMP donor tracer and cellular cAMP for binding sites on a cAMP—specific monoclonal antibody labeled with an acceptor fluorophore. When antibodies are bound to the cAMP tracer light emissions at 320 nm stimulate the energy transfer from the donor to the acceptor, which in turn emits light at 665 nm. In the presence of competitive unlabeled cAMP (derived from the activity of the receptor or forskolin-stimulated production of cAMP), the labelled cAMP tracer is dissociated from the cAMP antibody, resulting in a loss of FRET signal. The amount of light emitted by the FRET is inversely proportional to the cAMP generated by the cell/receptor system. Potency and efficacy at APJ are reported in reference to the canonical APJ receptor agonist apelin—13 when tested at 1 nM. […] Compound efficacy (% response) is reported as a percentage of the maximal apein-13 response at 1 nM (control). Potencies were calculated by fitting a […] logistic curve to concentration response consisting of at least 10 discrete data points spanning effective range of the compounds in the cell-based assay that measures cAMP. […] Category B is 200-500 nM; Category C is 100-200 nM; Category D is 50-100 nM; and Category E is <50 nM.

EC50 [nM] | Structure (SMILES)
> 500 | COc1cc2nc(NC(=O)Cc3ccc(S(=O)(=O)C4CCCC4)cc3)sc2cc1OC
> 500 | CCS(=O)(=O)c1ccc(C(Oc2ccc(C#N)cc2)C(=O)Nc2nc3ccccc3o2)cc1 (centres unmarked)
> 500 | CCS(=O)(=O)c1ccc(C(Oc2ccc(C#N)cc2)C(=O)Nc2nc3cc(OCCN(C)C)c(OC)cc3s2)cc1 (centres unmarked)
> 500 | CCS(=O)(=O)c1ccc(C(OCc2ccccc2)C(=O)Nc2nc3cc(OC)c(OC)cc3s2)cc1 (centres unmarked)
< 50 | CCS(=O)(=O)c1ccc(C(Oc2ccc(C#N)cc2)C(=O)Nc2nc3cc(OCCF)c(OC)cc3s2)cc1 (centres unmarked)
200 to 500 | COc1cc2nc(NC(=O)C(Oc3ccc(C#N)cc3)c3ccc(OCCN4CCCC4)cc3)sc2cc1OC (centres unmarked)
> 500 | CCS(=O)(=O)c1ccc(C(C(=O)Nc2nc3cc(OC)c(OC)cc3s2)N2CCCCC2)cc1 (centres unmarked)
200 to 500 | CCS(=O)(=O)c1ccc(C(Oc2ccc(C#N)cc2)C(=O)Nc2nc3cc(OC(C)C)c(OC)cc3s2)cc1 (centres unmarked)
200 to 500 | COc1cc2nc(NC(=O)C(Oc3ccc(C#N)cc3)c3cccc(S(=O)(=O)C(C)C)c3)sc2cc1OC (centres unmarked)
> 500 | COc1cc2nc(NC(=O)C(Oc3ccccc3)c3ccc(C#N)cc3)sc2cc1OC (centres unmarked)
> 500 | CCS(=O)(=O)c1ccc(C(CCOC)C(=O)Nc2nc3cc(OC)c(OC)cc3s2)cc1 (centres unmarked)
< 50 | COc1cc2nc(NC(=O)C(Oc3ccc(C#N)cc3)c3ccc(C(=O)N(C)C)cc3)sc2cc1OC (centres unmarked)
200 to 500 | CCS(=O)(=O)c1ccc(C(Oc2ccccc2I)C(=O)Nc2nc3cc(OC)c(OC)cc3s2)cc1 (centres unmarked)
> 500 | CCS(=O)(=O)c1ccc(CC(=O)Nc2nc3cc(N(C)C)ccc3s2)cc1
> 500 | COc1cc2nc(NC(=O)Cc3cccc(S(=O)(=O)C4CCCC4)c3)sc2cc1OC
> 500 | CCS(=O)(=O)c1ccc(C(Oc2ccc3ccccc3c2)C(=O)Nc2nc3cc(OC)c(OC)cc3s2)cc1 (centres unmarked)
50 to 100 | COCCNC(=O)c1ccc(C(Oc2ccc(C#N)cc2)C(=O)Nc2nc3cc(OC)c(OC)cc3o2)cc1 (centres unmarked)
< 50 | COc1ccc(C(Oc2ccc(C#N)cc2)C(=O)Nc2nc3cc(OC)c(OC)cc3s2)cc1 (centres unmarked)

EC50 [nM] | Structure (SMILES)
> 500 | CCS(=O)(=O)c1ccc(C(Oc2ccccc2OC)C(=O)Nc2nc3cc(OC)c(OC)cc3s2)cc1 (centres unmarked)
> 500 | CCS(=O)(=O)c1ccc(C(Oc2ccc(C(=O)O)cc2)C(=O)Nc2nc3cc(OC)c(OC)cc3s2)cc1 (centres unmarked)
< 50 | COCCOc1ccc(C(Oc2ccc(C#N)cc2)C(=O)Nc2nc3cc(OC)c(OC)cc3o2)cc1 (centres unmarked)
> 500 | COC(=O)c1cccc(CC(=O)Nc2nc3cc(OC)c(OC)cc3s2)c1
> 500 | CCS(=O)(=O)c1ccc(C(Oc2ccc(C#N)cc2)C(=O)Nc2nc3cc(C)c(OC)cc3s2)cc1 (centres unmarked)
> 500 | CCS(=O)(=O)c1ccc(C(Nc2cccc(C)c2)C(=O)Nc2nc3cc(OC)c(OC)cc3s2)cc1 (centres unmarked)
50 to 100 | COc1cc2nc(NC(=O)C(Oc3ccc(OCCN4CCOCC4)cc3)c3ccc(C#N)cc3)sc2cc1OC (centres unmarked)
> 500 | CCS(=O)(=O)c1ccc(C(Oc2ccc(C#N)cc2)C(=O)Nc2nc3cc(OCCN4CCOCC4)c(OC)cc3s2)cc1 (centres unmarked)
> 500 | CCS(=O)(=O)c1ccc(C(Oc2ccc(OC)cc2)C(=O)Nc2nc3ccc(OC)cc3s2)cc1 (centres unmarked)
> 500 | COc1cc2nc(NC(=O)C(Oc3ccc(C#N)cc3)c3ccc(S(=O)(=O)c4ccc(C(F)(F)F)cc4)cc3)sc2cc1OC (centres unmarked)
50 to 100 | CCS(=O)(=O)c1ccc(C(Oc2ccc(C#N)cc2)C(=O)Nc2nc3ccc4c(c3s2)OCCO4)cc1 (centres unmarked)
50 to 100 | COc1cc2nc(NC(=O)C(Oc3ccc(C#N)cc3)c3ccc(C)cc3)sc2cc1OC (centres unmarked)
> 500 | CCS(=O)(=O)c1ccc(C(C(=O)Nc2nc3cc(OC)c(OC)cc3s2)C2CCCC2)cc1 (centres unmarked)
200 to 500 | COc1cc2nc(NC(=O)C(Oc3ccc(C#N)cc3)c3ccc(F)cc3)sc2cc1OC (centres unmarked)
> 500 | COc1cc2nc(NC(=O)Cc3cccc(C(=O)O)c3)sc2cc1OC
200 to 500 | CCOc1ccc(OC(C(=O)Nc2nc3cc(OC)c(OC)cc3s2)c2ccc(S(=O)(=O)CC)cc2)cc1 (centres unmarked)
100 to 200 | CCS(=O)(=O)c1ccc([C@@H](Oc2ccc(C#N)cc2)C(=O)Nc2nc3cc(OC)c(OC)cc3s2)cc1
